Test results taken from patent US20240417387A1, “SULFONYLPIPERAZINYL COMPOUNDS FOR TREATMENT OF BACTERIAL INFECTIONS” (Hoffmann-La Roche Inc., priority 2021, published 2024).
In brackets after ≈: the same amount, converted by molar mass.

Key:
[1] = Human microsome stability assay; type: in vitro ADME; settings: human liver microsomes 0.5 mg/mL, 37° C., pH 7.4, NADPH regenerating system
Description: The human microsomal stability assay is used for early assessment of metabolic stability of a test compound in human liver microsomes.
Human liver microsomes (Cat.NO.: 452117, Corning, USA) were preincubated with test compound for 10 minutes at 37° C. in 100 mM potassium phosphate buffer, pH 7.4. The reactions were initiated by adding NADPH regenerating system. The final incubation mixtures contained 1 µM test compound, 0.5 mg/mL liver microsomal protein, 1 mM MgCl2, 1 mM NADP, 1 unit/mL isocitric dehydrogenase and 6 mM isocitric acid in 100 mM potassium phosphate buffer, pH 7.4. After incubation times of 0, 3, 6, 9, 15 and 30 minutes at 37° C., 300 μL of cold acetonitrile (including internal standard) was added to 100 μL incubation mixture to terminate the reaction. Following precipitation and centrifugation, the amount of compound remaining in the samples were determined by LC-MS/MS. Controls of no NADPH regenerating system at zero and 30 minutes were also prepared and analyzed. […] (Human microsome clearance: <7 mL/min/kg: low; 7-16.2 mL/min/kg: medium; >16.2 mL/min/kg: high)

[2] = test system: Escherichia coli BW 25113; assay: Minimal Inhibitory Concentration (MIC) broth dilution assay, E. coli BW 25113; type: cell-based; settings: Escherichia coli, BW25113, 20 hours at 35° C., CAMHB, read-out: MIC E. coli K-12 BW 25113
Description: (§1) The antibacterial activity of molecules was evaluated against the commonly used quality control strain Escherichia coli BW 25113, Escherichia coli ATCC 25922 and the rifampin-resistant mutant strain Klebsiella pneumonia ATCC 43816. Escherichia co/i BW 25113 was obtained from the Coli Genetic Stock Center (CGSC) (strain 7636). Both Escherichia coli ATCC 25922 and Klebsiella pneumonia ATCC 43816 were originally derived from human clinical samples and are available from ATCC (American Type Culture Collection). The in vitro potency of compounds to inhibit Escherichia coli (BW 25113, ATCC 25922) and Klebsiella pneumonia (ATCC 43816) growth was assessed by the MIC (Minimal Inhibitory Concentration) broth dilution method. Specifically compound dilutions were prepared from 10 mM DMSO stock solutions as follows: i) serial 2-fold dilution in 20 μL DMSO were prepared in a master plate (Greiner, Cat No: 651201), ii) 180 μL sterile distilled water was added to each aliquot and iii) 10 μL diluted compounds were transferred into a new assay plate (Costar, 3599).
(§2) Vials of each test microorganisms were maintained frozen in the vapor phase of a liquid nitrogen freezer. Single-use frozen vials of the three strains Escherichia coli BW 25113, Escherichia coli ATCC 25922 (KWTKSTTK, 0335K) and Klebsiella pneumonia ATCC 43816, with predetermined CFU/mL, were taken out from the freezer, thawed at room temperature, and diluted in Cation-Adjusted Mueller Hinton Broth (CAMVIHB) to achieve a final inoculum of 5×10^5 CFU/mL. 90 μL bacteria containing broth was dispensed to the assay plate containing the pre-dispensed compound dilutions and mixed by pipetting 5 times.
(§3) Then the assay plates were incubated for 20 hours at 35° C. in ambient air. Following incubation, the MIC […], the lowest concentration of drug that inhibits visible growth of the microorganism was read with the help of a magnification mirror and recorded.

[3] = test system: Klebsiella pneumonia ATCC 43816; assay: Minimal Inhibitory Concentration (MIC) broth dilution assay, K. pneumonia ATCC 43816; type: cell-based; settings: Klebsiella pneumoniae, ATCC43816, 20 hours at 35° C., CAMHB, read-out: MIC K. p ATCC 43816
Description: as §1, §2, §3

[4] = test system: Escherichia coli ATCC 25922; assay: Minimal Inhibitory Concentration (MIC) broth dilution assay, E. coli ATCC 25922; type: cell-based; settings: Escherichia coli, ATCC25922, 20 h, read-out: MIC E. coli ATCC 25922
Description: as §1, §2, §3

Compound	Clearance of Human microsome [1]	MIC [2]	MIC [3]	MIC [4]
NC1CC(=O)N(c2ccc(S(=O)(=O)N3CCN(c4cc(C(F)(F)c5ccc(C(=O)NCCCO)cc5)cc(Cl)n4)CC3)cc2)C1 (centres unmarked) [Example 015, 4-[[2-[4-[4-(4-amino-2-oxo-pyrrolidin-1-yl)phenyl]sulfonylpiperazin-1-yl]-6-chloro-4-pyridyl]-difluoro-methyl]-N-(3-hydroxypropyl)benzamide]	9.58 mL/min/kg	0.7 µg/mL (≈ 1.06 µM)	0.7 µg/mL (≈ 1.06 µM)	0.7 µg/mL (≈ 1.06 µM)
NCCCNC(=O)c1ccc(C(F)(F)c2cc(Cl)nc(N3CCN(S(=O)(=O)c4ccc(N5CC(N)CC5=O)cc4)CC3)c2)cc1 (centres unmarked) [Example 016, 4-[[2-[4-[4-(4-amino-2-oxo-pyrrolidin-1-yl)phenyl]sulfonylpiperazin-1-yl]-6-chloro-4-pyridyl]-difluoro-methyl]-N-(3-aminopropyl)benzamide]	8.63 mL/min/kg	0.35 µg/mL (≈ 0.529 µM)	0.35 µg/mL (≈ 0.529 µM)	0.35 µg/mL (≈ 0.529 µM)
NCCNC(=O)c1ccc(C(F)(F)c2cc(Cl)nc(N3CCN(S(=O)(=O)c4ccc(N5CC(N)CC5=O)cc4)CC3)c2)cc1 (centres unmarked) [Example 017, N-(2-aminoethyl)-4-[[2-[4-[4-(4-amino-2-oxo-pyrrolidin-1-yl)phenyl]sulfonylpiperazin-1-yl]-6-chloro-4-pyridyl]-difluoro-methyl]benzamide]	9.36 mL/min/kg	0.35 µg/mL (≈ 0.54 µM)	0.45 µg/mL (≈ 0.694 µM)	0.3 µg/mL (≈ 0.463 µM)
NCC(O)CNC(=O)c1ccc(C(F)(F)c2cc(Cl)nc(N3CCN(S(=O)(=O)c4ccc(N5CC(N)CC5=O)cc4)CC3)c2)cc1 (centres unmarked) [Example 018, N-(3-amino-2-hydroxy-propyl)-4-[[2-[4-[4-(4-amino-2-oxo-pyrrolidin-1-yl)phenyl]sulfonylpiperazin-1-yl]-6-chloro-4-pyridyl]-difluoro-methyl]benzamide]	6.15 mL/min/kg	0.62 µg/mL (≈ 0.914 µM)	0.62 µg/mL (≈ 0.914 µM)	0.62 µg/mL (≈ 0.914 µM)
NCC(O)CNC(=O)c1ccc(C(F)(F)c2cc(Cl)nc(N3CCN(S(=O)(=O)c4ccc(N5C[C@H](N)CC5=O)cc4)CC3)c2)cc1 (stereo partly drawn) [Example 019, N-(3-amino-2-hydroxy-propyl)-4-[[2-chloro-6-[4-[4-[(4R)-4-amino-2-oxo-pyrrolidin-1-yl]phenyl]sulfonylpiperazin-1-yl]-4-pyridyl]-difluoro-methyl]benzamide]	10.63 mL/min/kg	0.35 µg/mL (≈ 0.516 µM)	0.35 µg/mL (≈ 0.516 µM)	0.71 µg/mL (≈ 1.05 µM)
NCCNC(=O)[C@H]1CC[C@H](C(F)(F)c2cc(Cl)nc(N3CCN(S(=O)(=O)c4ccc(N5C[C@H](N)CC5=O)cc4)CC3)c2)CC1 [Example 041, Trans-N-(2-aminoethyl)-4-[[2-chloro-6-[4-[4-[(4R)-4-amino-2-oxo-pyrrolidin-1-yl]phenyl]sulfonylpiperazin-1-yl]-4-pyridyl]-difluoro-methyl]cyclohexanecarboxamide]	9.73 mL/min/kg	0.54 µg/mL (≈ 0.825 µM)	0.54 µg/mL (≈ 0.825 µM)	0.54 µg/mL (≈ 0.825 µM)
NCCCN(CCCN)C(=O)C12CCC(C(F)(F)c3cc(Cl)nc(N4CCN(S(=O)(=O)c5ccc(N6C[C@H](N)CC6=O)cc5)CC4)c3)(CC1)C2 [Example 046]	6.15 mL/min/kg	2.4 µg/mL (≈ 3.26 µM)	1.2 µg/mL (≈ 1.63 µM)	1.2 µg/mL (≈ 1.63 µM)
NCCCNC(=O)C1C[C@@H]2CC[C@H]1CC2C(F)(F)c1cc(Cl)nc(N2CCN(S(=O)(=O)c3ccc(N4C[C@H](N)CC4=O)cc3)CC2)c1 (some centres unmarked) [Example 053]	6.15 mL/min/kg	0.55 µg/mL (≈ 0.792 µM)	0.54 µg/mL (≈ 0.778 µM)	0.57 µg/mL (≈ 0.821 µM)
C[C@H]1C[C@H](N)CN1C(=O)[C@H]1CC[C@H](C(F)(F)c2cc(Cl)nc(N3CCN(S(=O)(=O)c4ccc(N5C[C@H](N)CC5=O)cc4)CC3)c2)CC1 [Example 064, (4R)-4-amino-1-[4-[4-[4-[[4-[(2S,4S)-4-amino-2-methyl-pyrrolidine-1-carbonyl]cyclohexyl]-difluoro-methyl]-6-chloro-2-pyridyl]piperazin-1-yl]sulfonylphenyl]pyrrolidin-2-one]	6.15 mL/min/kg	0.67 µg/mL (≈ 0.965 µM)	0.57 µg/mL (≈ 0.821 µM)	0.57 µg/mL (≈ 0.821 µM)
C[N+](CCN)(CCN)CCCNC(=O)[C@H]1CC[C@H](C(F)(F)c2cc(Cl)nc(N3CCN(S(=O)(=O)c4ccc(N5C[C@H](N)CC5=O)cc4)CC3)c2)CC1 [Example 065, Trans-bis(2-aminoethyl)-[3-[[4-[[2-[4-[4-[(4R)-4-amino-2-oxo-pyrrolidin-1-yl]phenyl]sulfonylpiperazin-1-yl]-6-chloro-4-pyridyl]-difluoro-methyl]cyclohexanecarbonyl]amino]propyl]-methyl-ammonium]	8.21 mL/min/kg	0.66 µg/mL	0.66 µg/mL	0.66 µg/mL
NC[C@@H]1CN(C(=O)[C@H]2CC[C@H](C(F)(F)c3cc(Cl)nc(N4CCN(S(=O)(=O)c5ccc(N6C[C@H](N)CC6=O)cc5)CC4)c3)CC2)C[C@@H]1CN [Example 067, Trans-(4R)-4-amino-1-[4-[4-[4-[[4-[cis-3,4-bis(aminomethyl)pyrrolidine-1-carbonyl]cyclohexyl]-difluoro-methyl]-6-chloro-2-pyridyl]piperazin-1-yl]sulfonylphenyl]pyrrolidin-2-one]	6.15 mL/min/kg	0.59 µg/mL (≈ 0.816 µM)	0.57 µg/mL (≈ 0.788 µM)	0.3 µg/mL (≈ 0.415 µM)
C[C@H]1CNC[C@@H]1NC(=O)[C@H]1CC[C@H](C(F)(F)c2cc(Cl)nc(N3CCN(S(=O)(=O)c4ccc(N5C[C@H](N)CC5=O)cc4)CC3)c2)CC1 [Example 068, Trans-4-[[2-[4-[4-[(4R)-4-amino-2-oxo-pyrrolidin-1-yl]phenyl]sulfonylpiperazin-1-y1]-6-chloro-4-pyridy1]-difluoro-methyl]-N-[(3R,4S)-4-methylpyrrolidin-3-yl]cyclohexanecarboxamide]	9.49 mL/min/kg	0.32 µg/mL (≈ 0.461 µM)	0.32 µg/mL (≈ 0.461 µM)	0.32 µg/mL (≈ 0.461 µM)
CN[C@@H]1CC(=O)N(c2ccc(S(=O)(=O)N3CCN(c4cc(C(F)(F)[C@H]5CC[C@H](C(=O)NCCCN)CC5)cc(Cl)n4)CC3)cc2)C1 [Example 069, Trans-N-(3-aminopropyl)-4-[[2-chloro-6-[4-[4-[(4R)-4-(methylamino)-2-oxo-pyrrolidin-1-yl]phenyl]sulfonylpiperazin-1-y1]-4-pyridyl]-difluoro-methyl]cyclohexanecarboxamide]	10.85 mL/min/kg	0.56 µg/mL (≈ 0.821 µM)	0.56 µg/mL (≈ 0.821 µM)	0.56 µg/mL (≈ 0.821 µM)
NCC(=O)N[C@H]1CC[C@@H](NC(=O)[C@H]2CC[C@H](C(F)(F)c3cc(Cl)nc(N4CCN(S(=O)(=O)c5ccc(N6C[C@H](N)CC6=O)cc5)CC4)c3)CC2)C1 [Example 079, Trans-N-[(1R,3S)-3-[(2-aminoacetyl)amino]cyclopentyl]-4-[[2-[4-[4-[(4R)-4-amino-2-oxo-pyrrolidin-1-yl]phenyl]sulfonylpiperazin-1-yl]-6-chloro-4-pyridyl]-difluoro-methyl]cyclohexanecarboxamide]	11.16 mL/min/kg	3.4 µg/mL (≈ 4.53 µM)	0.85 µg/mL (≈ 1.13 µM)	3.4 µg/mL (≈ 4.53 µM)
NC[C@@H]1CN([C@@H]2CC[C@H](NC(=O)[C@H]3CC[C@H](C(F)(F)c4cc(Cl)nc(N5CCN(S(=O)(=O)c6ccc(N7C[C@H](N)CC7=O)cc6)CC5)c4)CC3)C2)C[C@@H]1CN [Example 080, Trans-4-[[2-[4-[4-[(4R)-4-amino-2-oxo-pyrrolidin-1-yl]phenyl]sulfonylpiperazin-1-yl]-6-chloro-4-pyridyl]-difluoro-methyl]-N-[(1S,3R)-3-[cis-3,4-bis(aminomethyl)pyrrolidin-1-yl]cyclopentyl]cyclohexanecarboxamide]		0.33 µg/mL (≈ 0.409 µM)	0.99 µg/mL (≈ 1.23 µM)	0.33 µg/mL (≈ 0.409 µM)
